The target in the assay is T1, hROMK (hKir1.1) (Homo sapiens, UniProt P48048).
T1 construct: expressed in transfected cells
T1 sequence (P48048 1-391): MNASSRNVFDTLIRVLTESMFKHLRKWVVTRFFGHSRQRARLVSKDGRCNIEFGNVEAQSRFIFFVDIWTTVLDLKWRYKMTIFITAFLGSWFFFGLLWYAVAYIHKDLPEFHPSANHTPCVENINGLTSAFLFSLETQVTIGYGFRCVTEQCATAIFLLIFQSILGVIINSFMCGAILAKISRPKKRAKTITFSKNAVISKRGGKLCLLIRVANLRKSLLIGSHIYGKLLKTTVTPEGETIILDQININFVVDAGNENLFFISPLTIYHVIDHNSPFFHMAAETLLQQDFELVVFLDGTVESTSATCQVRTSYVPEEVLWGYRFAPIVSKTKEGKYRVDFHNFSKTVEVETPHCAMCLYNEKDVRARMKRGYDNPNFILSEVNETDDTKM
Kind of assay: Thallium Flux Assay (ROMK channel functional thallium flux assay). The assay is classed as cell-based. The note with it: HEK293 cells stably expressing hROMK (hKir1.1); FluxOR thallium flux, FLIPR-Tetra, 30 min compound incubation; read-out: ROMK TI IC50. How it is done:
The following Thallium Flux Assay was performed on each of the final product compounds in the Examples.
HEK293 cells stably expressing hROMK (hKir1.1) were grown at 37° C. in a 10% CO2 humidified incubator in complete growth media: Dulbecco's Modified Eagle Medium supplemented with non-essential amino acids, Penicillin/Streptomycin/Glutamine, G418 and FBS. At >80% confluency, the media was aspirated from the flask and rinsed with 10 mL calcium/magnesium-free PBS. […] To dislodge the cell, the side of the flask was gently banged with one's hand. The cells completely titrated and then the cells were transferred to 25 mL complete media, centrifuged at 1,500 rpm for 6 min followed by resuspension in complete growth media and determine cell concentration. […] Under ideal growth conditions and appropriate tissue culture practices, this cell line is stable for 40-45 passages.
• FluxOR™ Reagent (Component A) • FluxOR™ Assay Buffer (Component B)—10× Concentrate • PowerLoad™ Concentrate (Component C)—100× Concentrate • Probenecid (Component D)—Lyophilized sample is kept at −20° C. Water soluble, 100× after solubilization in 1 mL water. […] Store at 4° C. • Thallium sulfate (Tl2SO4) Concentrate (Component G)—50 mM in water. Store at 4° C. • DMSO (dimethyl sulfoxide, Component H)—1 mL (100%)
Can be stored at room temperature • Stimulant Buffer (prepared at 5× final concentration in 1×FluxOR™ Chloride-Free Buffer): 7.5 mM thallium sulfate and 0.75 mM potassium sulfate (to give a final assay concentration of 3 mM Thallium/0.3 mM potassium). Store at 4° C. when not in use. If kept sterile, this solution is good for months.
The ROMK channel functional thallium flux assay was performed in 384 wells, using the FLIPR-Tetra instrument. HEK-hKir1.1 cells were seeded in Poly-D-Lysine microplates and kept in a 37° C.-10% CO2 incubator overnight. On the day of the experiment, the growth media was replaced with the FluxOR™ reagent loading buffer and incubated, protected from light, at ambient temperature (23-25° C.) for 90 min. The loading buffer was replaced with assay buffer±test compound followed by 30 min incubation at ambient temperature, where the thallium/potassium stimulant was added to the microplate.
1. Seed HEK-hKir1.1 cells (50 μl at 20,000 cells/well) in 384-well PDL coated Microplates 2. Allow cells to adhere overnight in humidified 37° C./10% CO2 incubator 3. Completely remove cell growth media from microplate and replace with 25 μl loading buffer 4. Incubate Microplate at room temperature, protected form light, for 90 min 5. Remove loading buffer and replace with 25 μl 1× Assay Buffer±test compound. 6. Incubate microplate at room temperature, protected from light, for 30 min 7. […] Excitation=400 nm, Emission=460 & 580 nm. Collect data for ˜10 min.
The fluorescence intensity of wells containing 3 μM of a standard control ROMK inhibitor of the present invention was used to define the ROMK-sensitive component of thallium flux. Fluorescence in the presence of test compounds was normalized to control values to provide % fluorescence change.

By IC50 is commonly meant the concentration that inhibits the measured activity by half. In the case of `Cc1c([C@@H](O)CN2CCC3(CC2)CCN(c2ccc(OC(F)(F)F)cc2)C3=O)ccc2c1COC2=O` [Example 32, (R)-8-(2-hydroxy-2-(4-methyl-1-oxo-1,3-dihydroisobenzofuran-5-yl)ethyl)-2-(4-(trifluoromethoxy)phenyl)-2,8-diazaspiro[4.5]decan-1-one], the IC50 turned out to be 465 nM.

Regarding `O=C1N(c2ccns2)CCC12CCN(C[C@@H](O)c1ccc(-n3cnnn3)nc1)CC2` [Example 101, (S)-8-(2-(6-(1H-tetrazol-1-yl)pyridin-3-yl)-2-hydroxyethyl)-2-(isothiazol-5-yl)-2,8-diazaspiro[4.5]decan-1-one], the IC50 came out at 203 nM.

As to `Cc1c([C@@H](O)CN2CCC3(CC2)CCN(c2nc(Cl)cs2)C3)ccc2c1COC2=O` [Example 2, 5-{(1R)-2-[2-(4-chloro-1,3-thiazol-2-yl)-2,8-diazaspiro[4.5]dec-8-yl]-1-hydroxyethyl}-4-methyl-2-benzofuran-1(3H)-one], the IC50 is 935 nM.

Turning to `Cc1c([C@@H](O)CN2CCC3(CC2)CCN(c2nccnc2N)CC3)ccc2c1COC2=O` [Example 122, (R)-5-(2-(9-(3-aminopyrazin-2-yl)-3,9-diazaspiro[5.5]undecan-3-yl)-1-hydroxyethyl)-4-methylisobenzofuran-1(3H)-one], the concentration for half-maximal inhibition (IC50) was found to be 160 nM.

On to `Cc1c([C@@H](O)CN2CCC3(CC2)CCN(c2ccncc2F)C3=O)ccc2c1COC2=O` [Example 73, (R)-2-(3-fluoropyridin-4-yl)-8-(2-hydroxy-2-(4-methyl-1-oxo-1,3-dihydroisobenzofuran-5-yl)ethyl)-2,8-diazaspiro[4.5]decan-1-one], for which the IC50 came out at 417 nM.

As to `Cc1c([C@@H](O)CN2CCC3(CC2)CCN(c2cnccn2)CC3)ccc2c1COC2=O` [Example 116, (R)-5-(1-hydroxy-2-(9-(pyrazin-2-yl)-3,9-diazaspiro[5.5]undecan-3-yl)ethyl)-4-methylisobenzofuran-1(3H)-one], the half-inhibitory concentration (IC50) was found to be 6.28 nM.

In the case of `COc1cnc(N2CCC3(CCN(C[C@H](O)c4ccc5c(c4C)COC5=O)CC3)CC2)nc1` [Example 118, (R)-5-(1-hydroxy-2-(9-(5-methoxypyrimidin-2-yl)-3,9-diazaspiro[5.5]undecan-3-yl)ethyl)-4-methylisobenzofuran-1(3H)-one], the IC50 came to 125 nM.

As to `Cc1c([C@@H](O)CN2CCC3(CC2)CCN(c2ccnc(N)n2)C3=O)ccc2c1COC2=O` [Example 46, (R)-2-(2-aminopyrimidin-4-yl)-8-(2-hydroxy-2-(4-methyl-1-oxo-1,3-dihydroisobenzofuran-5-yl)ethyl)-2,8-diazaspiro[4.5]decan-1-one], the IC50 was found to be 485 nM.

For the compound `Cc1c([C@@H](O)CN2CCC3(CC2)CCN(c2cncc(Cl)n2)CC3)ccc2c1COC2=O` [Example 126, (R)-5-(2-(9-(6-chloropyrazin-2-yl)-3,9-diazaspiro[5.5]undecan-3-yl)-1-hydroxyethyl)-4-methylisobenzofuran-1(3H)-one], the concentration for half-maximal inhibition (IC50) was 281 nM.

In the case of `Cc1c([C@@H](O)CN2CCC3(CC2)CCN(c2ccc(=O)n(C(F)F)n2)C3=O)ccc2c1COC2=O` [Example 55, (R)-2-(1-(difluoromethyl)-6-oxo-1,6-dihydropyridazin-3-yl)-8-(2-hydroxy-2-(4-methyl-1-oxo-1,3-dihydroisobenzofuran-5-yl)ethyl)-2,8-diazaspiro[4.5]decan-1-one], the IC50 stood at 133 nM.

In the case of `COc1cc(N2CC3(CCN(C[C@H](O)c4ccc5c(c4C)COC5=O)CC3)CC2=O)ccn1` [Example 84, (R)-8-(2-hydroxy-2-(4-methyl-1-oxo-1,3-dihydroisobenzofuran-5-yl)ethyl)-2-(2-methoxypyridin-4-yl)-2,8-diazaspiro[4.5]decan-3-one], the IC50 was determined as 149 nM.

`Cc1nc(-n2cnnn2)ccc1[C@@H](O)CN1CCC2(CC1)CCN(c1ccc(=O)n(C)n1)C2=O` [Example 93, (R)-8-(2-hydroxy-2-(2-methyl-6-(1H-tetrazol-1-yl)pyridin-3-yl)ethyl)-2-(1-methyl-6-oxo-1,6-dihydropyridazin-3-yl)-2,8-diazaspiro[4.5]decan-1-one]: the IC50 worked out at 259 nM.

Take `Cc1nsc(N2CCOC3(CCN(C[C@H](O)c4ccc5c(c4C)COC5=O)CC3)C2=O)n1` [Example 28, (R)-9-(2-hydroxy-2-(4-methyl-1-oxo-1,3-dihydroisobenzofuran-5-yl)ethyl)-4-(3-methyl-1,2,4-thiadiazol-5-yl)-1-oxa-4,9-diazaspiro[5.5]undecan-5-one]: the IC50 was 123 nM.

As for `Cc1c([C@@H](O)CN2CCC3(CC2)CCN(c2cnc(C(=O)O)cn2)CC3)ccc2c1COC2=O` [Example 120, (R)-5-(9-(2-hydroxy-2-(4-methyl-1-oxo-1,3-dihydroisobenzofuran-5-yl)ethyl)-3,9-diazaspiro[5.5]undecan-3-yl)pyrazine-2-carboxylic acid], the IC50 was 236 nM.

In the case of `Cc1c([C@@H](O)[C@H](C)N2CCC3(CCN(c4ccc(=O)n(C)n4)C3=O)CC2)ccc2c1COC2=O` [Example 107, 8-((1R,2S)-1-hydroxy-1-(4-methyl-1-oxo-1,3-dihydroisobenzofuran-5-yl)propan-2-yl)-2-(1-methyl-6-oxo-1,6-dihydropyridazin-3-yl)-2,8-diazaspiro[4.5]decan-1-one], the IC50 was 42 nM.

For the compound `COc1cc(N2CCC3(CCN(C[C@H](O)c4ccc5c(c4C)COC5=O)CC3)C2)ccn1` [Example 12, (R)-5-(1-hydroxy-2-(2-(2-methoxypyridin-4-yl)-2,8-diazaspiro[4.5]decan-8-yl)ethyl)-4-methylisobenzofuran-1(3H)-one], the IC50 turned out to be 962 nM.

As to `Cc1c([C@@H](O)CN2CCC3(CC2)CCN(c2cnc(Br)cn2)CC3)ccc2c1COC2=O` [Example 127, (R)-5-(2-(9-(5-bromopyrazin-2-yl)-3,9-diazaspiro[5.5]undecan-3-yl)-1-hydroxyethyl)-4-methylisobenzofuran-1(3H)-one], the concentration for half-maximal inhibition (IC50) turned out to be 29.9 nM.

Consider `Cc1cc(-n2cnnn2)ccc1[C@@H](O)CN1CCC2(CC1)CN(c1ccc(=O)n(C)n1)CCO2` [Example 19, (R)-6-(9-(2-hydroxy-2-(2-methyl-4-(1H-tetrazol-1-yl)phenyl)ethyl)-1-oxa-4,9-diazaspiro[5.5]undecan-4-yl)-2-methylpyridazin-3(2H)-one], for which the IC50 came to 540 nM.

As to `CC(=O)OCc1nsc(N2CCC3(CCN(C[C@H](O)c4ccc5c(c4C)COC5=O)CC3)C2)n1` [Example 3, (5-{8-[(2R)-2-hydroxy-2-(4-methyl-1-oxo-1,3-dihydro-2-benzofuran-5-yl)ethyl]-2,8-diazaspiro[4.5]dec-2-yl}-1,2,4-thiadiazol-3-yl)methyl acetate], the concentration for half-maximal inhibition (IC50) was determined as 100 nM.

For the compound `O[C@@H](CN1CCC2(CC1)CCN(c1cnc(Cl)cn1)CC2)c1ccc(-n2cnnn2)nc1` [Example 135, (R)-1-(6-(1H-tetrazol-1-yl)pyridin-3-yl)-2-(9-(5-chloropyrazin-2-yl)-3,9-diazaspiro[5.5]undecan-3-yl)ethanol], the IC50 was found to be 875 nM.

As to `Cn1nc(N2CCC3(CCN(CCc4ccc(-n5cnnn5)nn4)CC3)C2=O)ccc1=O` [Example 21, 8-(2-(6-(1H-tetrazol-1-yl)pyridazin-3-yl)ethyl)-2-(1-methyl-6-oxo-1,6-dihydropyridazin-3-yl)-2,8-diazaspiro[4.5]decan-1-one], the IC50 amounted to 568 nM.

Turning to `Cc1c([C@@H](O)CN2CCC3(CC2)CCN(c2cc(C(F)(F)F)ncn2)C3)ccc2c1COC2=O` [Example 9, (R)-5-(1-hydroxy-2-(2-(6-(trifluoromethyl)pyrimidin-4-yl)-2,8-diazaspiro[4.5]decan-8-yl)ethyl)-4-methylisobenzofuran-1(3H)-one], the half-maximal inhibitory concentration (IC50) stood at 173 nM.

Source of the values: patent US20170275298A1, “INHIBITORS OF THE RENAL OUTER MEDULLARY POTASSIUM CHANNEL” (Merck Sharp & Dohme Corp., priority 2014, published 2017).
